[ ]: non-standard residue; d: D form. Aib = CC(C)(N)C(=O)O
Experiments:
[1] = target: T1, FPR1 (Homo sapiens, UniProt P21462); assay: Ligand binding assay: FITC-fMLF binding to RBL-2H3/ETFR cells; conditions: 100 nM unlabeled peptide 60 min at 4 °C, then 10 nM FITC-fMLF 60 min at 4 °C; fluorescence plate reader
T1 construct: expressed in transfected cells; host or cells: rat basophilic leukaemia RBL-2H3/ETFR cells (gift of F. Blasi)
T1 sequence (P21462 1-350): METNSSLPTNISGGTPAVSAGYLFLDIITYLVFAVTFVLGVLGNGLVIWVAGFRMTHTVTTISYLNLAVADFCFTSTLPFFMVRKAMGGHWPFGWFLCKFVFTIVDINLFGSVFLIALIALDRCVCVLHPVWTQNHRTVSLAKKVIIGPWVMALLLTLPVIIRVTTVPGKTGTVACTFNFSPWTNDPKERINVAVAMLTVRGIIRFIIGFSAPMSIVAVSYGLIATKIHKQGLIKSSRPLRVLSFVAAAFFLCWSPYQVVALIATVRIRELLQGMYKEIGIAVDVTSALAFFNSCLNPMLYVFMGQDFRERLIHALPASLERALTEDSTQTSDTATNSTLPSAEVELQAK
Procedure: RBL-2H3 cells, RBL-2H3/ETFR cells stably expressing FPR1 (1.5 × 10^6 cells/sample) were pre-incubated with diluents or the indicated unlabeled peptides for 60 min at 4 °C, extensively rinsed with phosphate buffer saline (PBS), exposed to 10 nM FITC-fMLF (Molecular Probes) in PBS for additional 60 min at 4 °C and again rinsed with PBS. Cell-associated fluorescence was quantitated with the fluorescence plate reader Victor 3 (Perkin Elmer) using 485 nm excitation and 535 nm emission filters. The experiments were performed three times in triplicate.

[2] = test system: Sarc cells; assay: Growth, vascularization and circulating tumor cells of subcutaneous Sarc tumors in nude mice; assay type: in vivo, Foxn1nu/nu female nude mice; conditions: 6 mg/Kg i.p. every day for 10 days
Procedure: To evaluate the effect of RI-3 on tumor growth and vascularization, Sarc cells were injected, as a single-cell suspension (1 × 10^6 cells in 100 µl of sterile PBS, 97% viability), subcutaneously in the flanks of sixteen six-eight weeks old, Foxn1nu/nu female nude mice (Harlan). Animals were randomized into two 8-mice groups with the treatment group receiving 6 mg/kg RI-3 by intra-peritoneal injection every 24 hr, and the control group receiving an equivalent injected volume of vehicle (PBS) only. Time-dependent average weight was monitored every two days. The length and the width of tumors were measured at different time points with a calliper and volumes were calculated using the formula: ½ × (width)[2] × length (mm). After 10 days, blood samples (at least 500 µL/mouse) from the retro-orbital venous plexus of mice anesthetized with 1% isoflurane were collected using a heparinized capillary tube and processed for determination of the Circulating Tumor Cells (CTCs). Then, the animals were sacrificed, the excised tumors were fixed in buffered formalin and processed for paraffin sectioning. Tumor vascularization was assessed by counting vascular channels harbouring red blood cells on CD31 immuno-stained sections in 5 randomly chosen fields per section, in at least two sections per tumor at x 200 as described. Two additional experiments were carried out with the same experimental design by injecting GFP-tagged Sarc cells (1 × 10^6 cells/mouse) subcutaneously in the flanks of twenty-five six-eight weeks old, Foxn1nu/nu female nude mice (Harlan). Animals were treated with 6 mg/kg RI-3, 6 mg/kg RERF or vehicle by intra-peritoneal injection every 24 hr for 10 or 12 days. Tumor growth and the appearance of positive tumor lesions near tumors and in lungs were monitored as brightly visualized by GFP fluorescence with a MacroFluo fluorescence stereomicroscope (Leica). We searched for the presence of GFP-positive nodules on the entire surface of freshly isolated lungs. Lungs were also sliced at approximately 3-mm thickness to examine the parenchyma in depth, and the positive nodules were acquired at higher magnification.
To quantify CTCs, DNA from nucleated cells of murine blood samples (500 μl/mouse) was extracted using the QIAamp DNA Mini Kit (Qiagen), according to the manufacturer’s protocol. Quantitative RT-PCR (7900 HT Fast Real-Time PCR System, Applied Biosystems) was performed using 18 ng DNA and the SYBR Select Master Mix (Applied Biosystems) as described. Primers to human Alu-sequences [FW 5′-[…]-3′/RV 5′-CCCAGGCTGGAGTGCAGT-3′] were employed to a final concentration of 0.5 μM. The number of CTCs was calculated by comparing the obtained Ct with a standard amplification curve generated in spiking experiments (1 to 50 cells were collected by pipetting under microscopic control) which were included in every run. DNA from murine blood was included as a negative control.

[3] = target: T1, FPR1; assay: Agonist-dependent FPR1 internalization, fluorescence microscopy in RBL-2H3/ETFR cells; assay type: cell-based; conditions: 100 nM peptide 30 min at 37 °C, then 10 nM FITC-fMLF 30 min at 37 °C; confocal microscopy
Procedure: Cells grown on glass slides to semi-confluence were exposed to diluents or the indicated unlabeled peptides for 30 min at 37 °C, then to 10 nM FITC-fMLF in PBS for additional 30 min at 37 °C and extensively rinsed with PBS. To visualize the cytoskeleton, the cells were fixed with 2.5% formaldehyde, permeabilized with 0.1% Triton X-100 for 10 min at 4 °C, and incubated with 0.1 µg/mL rhodamine-conjugated phalloidin (Sigma-Aldrich) for 40 min. In all cases, coverslips were mounted using 20% (w/v) Mowiol, visualized with a Zeiss 510META-LSM microscope (Carl Zeiss), and z-series were collected at 0.20 µm intervals.

[4] = test system: HT1080 cells; assay: HT1080 matrigel invasion toward 10% FBS in Boyden chambers; assay type: cell-based, human; conditions: 10 nM peptide plus 10% FBS, 6 hr, means of three independent experiments in triplicate
Procedure: Cell migration in Boyden chambers was carried out for 4 hr at 37 °C in humidified air with 5% CO2, as described. Briefly, cell suspension (1 × 10^5 viable cells/mL serum free medium) was seeded in each upper chamber. Lower chambers were filled with DMEM alone, DMEM containing RI peptides, 10 nM fMLF, or 10% FBS with/without RI peptides. The two compartments were separated by 8 μm pore size polycarbonate filters (Neuroprobe) coated with 2.5 µg/mL vitronectin (Corning). For the invasion assays, 8 μm pore size filters were coated with 50 μg/filter matrigel (BD Biosciences) as previously described[40] and cells (3 × 10^4 viable cells/well) were allowed to invade matrigel for 6 hr at 37 °C, 5% CO2. In all cases, at the end of the assay, cells on the lower filter surface were fixed with ethanol, stained with haematoxylin and 10 random fields/filter were counted at 200× magnification. Each experiment was performed three times in triplicate.

Ac-[dY][dR][Aib][dR]-NH2 (SMILES CC(=O)N[C@H](Cc1ccc(O)cc1)C(=O)N[C@H](CCCNC(=N)N)C(=O)NC(C)(C)C(=O)N[C@H](CCCNC(=N)N)C(N)=O) [RI-3]
effect on binding of FITC-fMLF to RBL-2H3/ETFR cells [1]: prevented binding of FITC-fMLF to RBL-2H3/ETFR cells to a similar extent as compared to fMLF as well as RERF
intra-tumoral microvessel density (CD31) vs vehicle-treated mice [2]: a reduced microvessel density
treated mice in which no CTCs were detected [2]: 4/8
body weight vs vehicle-treated mice ([2]; eight mice): comparable
volume of tumors after 10 days ([2]; eight mice, vehicle 330 +/− 163): 185 +/− 82 mm^3
circulating tumor cells in blood of CTC-positive mice ([2]; Alu Real-Time PCR, vehicle 10.04 +/− 3.7 in 8/8 mice): 2.6 +/− 2.7 CTCs/mL
effect on agonist-dependent FPR1 internalization [3]: paucity of FPR1 internalization
reduction of the extent of cell invasion (matrigel) [4]: 51%

From PMC5430962, “Retro-inverso Urokinase Receptor Antagonists for the Treatment of Metastatic Sarcomas” (Scientific Reports, 2017)
